{
  "source": "patent US20260139003A1",
  "about": "“PEPTIDE WITH ACTIVITY OF PROMOTING HAIR GROWTH AND INHIBITING HAIR LOSS AND USE THEREOF” (CAREGEN CO., LTD., priority 2022, published 2026)",
  "key": {"Keratin 14": {"system": "Keratin 14", "assay": "Keratin 14 gene expression in HHORSCs (RT-PCR)", "type": "cell-based, human", "conditions": "500 nM, 5 μM, and 50 μM, 24 hours, FIG. 6", "procedure": "(§1) The effect of the peptide prepared in Preparation Example 1 above on the activation of human hair outer root sheath cells (HHORSCs) was confirmed by measuring the gene expression of cytokeratin proteins.\n(§2) HHORSCs were seeded in a 96-well cell culture plate at a density of 4×10^3 cells/well and cultured for 24 hours under mesenchymal stem cell complete media conditions. Then, the medium was replaced with serum free mesenchymal stem cell medium and cultured for additional 24 hours. The cultured cell culture was treated with 500 nM, 5 μM, and 50 μM of the peptide prepared in Preparation Example 1 above, respectively, and treated with 100 nM of epidermal growth factor (EGF) as a positive control, and negative when not treated with anything to serve as a negative control (con), and these cultures were cultured at 37° C. for 24 hours. After washing each culture with PBS, RNA was isolated by treatment with 300 μL of eaay blue (Intron, South Korea). The isolated RNA was quantified using Nano drop, and then subjected to cDNA synthesis using a cDNA synthesis kit (Enzynomics, South Korea). Then, a PCR reaction was performed using the primers shown in Table 3 below and a PCR premix (Enzynomics, South Korea). The PCR reaction product was electrophoresed on a 1.5% agarose gel, and the bands were detected using the Bio-Rad Gel Image System."}, "HOXC13": {"system": "HOXC13", "assay": "HOXC13 expression in HHGMCs (RT-PCR)", "type": "cell-based, human", "conditions": "500 nM, 5 μM, and 50 μM, 24 hours, FIG. 7", "procedure": "(§3) The effect of the peptide prepared in Preparation Example 1 above on the activation of human hair germinal matrix cells (HHGMCs) was confirmed by measuring the expression of MSX2, Homeobox C13 (HOXC13), and Forkhead Box N1 (FOXN1), which are transcription factors related to cell activation.\nas §2, with “HHGMCs” for “HHORSCs”, “6-well” for “96-well”, “4×10^5” for “4×10^3”, “Then, a PCR reaction was performed using the primers shown in Table 3 below and a PCR premix (Enzynomics, South Korea).” left out"}, "Keratin 5": {"system": "Keratin 5", "assay": "Keratin 5 gene expression in HHORSCs (RT-PCR)", "type": "cell-based, human", "conditions": "500 nM, 5 μM, and 50 μM, 24 hours, FIG. 6", "procedure": "as §1, §2"}, "[1]": {"system": "extracellular-regulated kinase (ERK)", "assay": "ERK phosphorylation in HHFDPCs (Western blot)", "type": "cell-based, human", "conditions": "500 nM, 5 μM, and 50 μM, 24 hours, FIG. 2", "procedure": "(§4) The effect of the peptide prepared in Preparation Example 1 above on the activation of proliferation-related signaling molecules in human hair follicle dermal papilla cells (HHFDPCs) was confirmed by Western blot method.\n(§5) HHFDPCs were seeded in a 6-well cell culture plate at a density of 4×10^5 cells/well and cultured for 24 hours under mesenchymal stem cell complete media conditions. Then, the medium was replaced with serum-free mesenchymal stem cell medium and cultured for additional 24 hours. The cultured cell culture was treated with the peptide prepared in Preparation Example 1 above at 500 nM, 5 μM, and 50 μM, respectively, 1 μM of Minoxidil (MNX) was treated to serve as a positive control, and not treated with anything to serve as a negative control (con), and the cultures treated with these materials were cultured at 37° C. for additional 24 hours. After washing each culture with PBS, the cells were lysed by treatment with lysis buffer to obtain a cell lysate. Equal amounts of protein samples were prepared by BCA quantification of cell lysates. The prepared protein samples were subjected to electrophoresis using 10% SDS-PAGE. […] The resultant was washed 3 times for 15 minutes each with 0.1% PBS-T (0.1% Tween-20 in PBS), treated with ECL solution (GE Healthcare, USA), and detected with a film."}, "DKK-1": {"system": "DKK-1", "assay": "Expression of hair loss protein DKK-1 induced by DHT in HHFDPCs (Western blot)", "type": "cell-based, human", "conditions": "500 nM, 5 μM, and 50 μM, DHT 100 nM simultaneously, 24 hours, FIG. 5", "excerpt": "It is known that in hair follicles, dihydrotestosterone (DHT) promotes the expression of Dickkopf-1 (DKK-1), and DKK-1 induced by DHT inhibits the proliferation of keratinocytes in hair follicles and causes their apoptosis, thereby promoting hair loss (J of Invest Dermatolo. 2008, February, 128(2), pp. 262-269). The effect of the peptide prepared in Preparation Example 1 above on the expression level of the hair loss-inducing protein DKK-1 in human hair follicle dermal papilla cells (HHFDPCs) was confirmed by Western blot method.\nHHFDPCs were seeded in a 6-well cell culture plate at a density of 4×10^5 cells/well and cultured for 24 hours under mesenchymal stem cell complete media conditions. Then, the medium was replaced with serum-free mesenchymal stem cell medium and cultured for additional 24 hours. The cultured cell culture was treated with 500 nM, 5 μM, and 50 μM of the peptide prepared in Preparation Example 1 above, respectively. treated with 5 μM of finasteride to serve as a positive control, and not treated with anything to serve as a negative control group (con). […] Equal amounts of protein samples were prepared by BCA quantification of cell lysates. […] The resultant was washed 3 times for 15 minutes each with 0.1% PBS-T (0.1% Tween-20 in PBS), treated with ECL solution (GE Healthcare, USA), and detected with a film."}, "MSX2": {"system": "MSX2", "assay": "MSX2 expression in HHGMCs (RT-PCR)", "type": "cell-based, human", "conditions": "500 nM, 5 μM, and 50 μM, 24 hours, FIG. 7", "procedure": "as §3\nas §2, with “HHGMCs” for “HHORSCs”, “6-well” for “96-well”, “4×10^5” for “4×10^3”, “Then, a PCR reaction was performed using the primers shown in Table 3 below and a PCR premix (Enzynomics, South Korea).” left out"}, "beta-catenin": {"system": "beta-catenin", "assay": "Activation of beta-catenin in HHFDPCs (nuclear protein Western blot)", "type": "cell-based, human", "conditions": "500 nM, 5 μM, and 50 μM, 24 hours, nuclear proteins, FIG. 3", "procedure": "The effect of the peptide prepared in Preparation Example 1 above on the activation of beta-catenin in human hair follicle dermal papilla cells (HHFDPCs) was confirmed by Western blot method.\nHHFDPCs were seeded in a 6-well cell culture plate at a density of 4×10^5 cells/well and cultured for 24 hours under mesenchymal stem cell complete media conditions. Then, the medium was replaced with serum-free mesenchymal stem cell medium and cultured for additional 24 hours. The cultured cell culture was treated with the peptide prepared in Preparation Example 1 above at 500 nM, 5 μM, and 50 μM, respectively, and treated with 10 ng/mL of rhWnt-3a (recombinant human Wnt-3a protein, R&D systems (MN, USA) to serve as a positive control, and not treated with anything to serve as a negative control (con). The cultures treated with these materials were incubated at 37° C. for additional 24 hours. After washing each culture with PBS, nuclear proteins were isolated using a nuclear protein extraction kit (Thermo scientific, USA), and an equal amount of protein sample was prepared by BCA quantification. The prepared protein samples were subjected to electrophoresis using 10% SDS-PAGE. […] The resultant was washed 3 times for 15 minutes each with 0.1% PBS-T (0.1% Tween-20 in PBS), treated with ECL solution (GE Healthcare, USA), and detected with a film."}, "[2]": {"system": "human hair follicle dermal papilla cells (HHFDPCs)", "assay": "Proliferation of HHFDPCs (MTT)", "type": "cell-based", "conditions": "500 nM, 5 μM, and 50 μM, 72 hours, absorbance 540 nm, FIG. 1", "procedure": "The effect of the peptide prepared in Preparation Example 1 above on the proliferation of human hair follicle dermal papilla cells (HHFDPCs) was tested.\nHHFDPCs were seeded in a 96-well cell culture plate at a density of 4×10^3 cells/well and cultured for 24 hours under mesenchymal stem cell complete media conditions. Then, the medium was replaced with serum-free mesenchymal stem cell medium and cultured for additional 24 hours. The cultured cell culture was treated with the peptide prepared in Preparation Example 1 above at 500 nM, 5 μM, and 50 μM, respectively, treated with 1 μM VEGF to serve as a positive control, and not treated with anything to serve as a negative control (con), and these cultures were cultured at 37° C. for additional 72 hours. Thereafter, 10 μL of MTT solution (5 mg/mL) was added thereto, and the mixture was incubated in a CO2 incubator at 37° C. for 4 hours, the medium was removed, and 100 μL of DMSO was added thereto and shaken for 10 minutes. Finally, the absorbance was measured at a wavelength of 540 nm using a spectrophotometer (Molecular Devices (SpectraMax iD3, CA, USA))."}, "Keratin 19": {"system": "Keratin 19", "assay": "Keratin 19 gene expression in HHORSCs (RT-PCR)", "type": "cell-based, human", "conditions": "500 nM, 5 μM, and 50 μM, 24 hours, FIG. 6", "procedure": "as §1, §2"}, "c-Myc": {"system": "c-Myc", "assay": "c-Myc gene expression in HHFDPCs (RT-PCR)", "type": "cell-based, human", "conditions": "500 nM, 5 μM, and 50 μM, 24 hours, FIG. 4", "procedure": "(§6) The effect of the peptide prepared in Preparation Example 1 above on the expression levels of lymphoid enhancer-binding factor 1 (LEF-1), c-Myc, and Cyclin D1, which are downstream genes of beta-catenin, in human hair follicle dermal papilla cells (HHFDPCs) was determined by the RT-PCR method.\n(§7) HHFDPCs were seeded in a 6-well cell culture plate at a density of 4×10^5 cells/well and cultured for 24 hours under mesenchymal stem cell complete media conditions. Then, the medium was replaced with serum free mesenchymal stem cell medium and cultured for additional 24 hours. The cultured cell culture was treated with the peptide prepared in Preparation Example 1 above at 500 nM, 5 μM, and 50 μM, respectively, and treated with 10 ng/mL of rhWnt-3a (recombinant human Wnt-3a protein, R&D systems (MN, USA) to serve as a positive control, and not treated with anything to serve as a negative control (con), and each was cultured at 37° C. for additional 24 hours. After washing each culture with PBS, RNA was isolated therefrom by treatment with 300 μL of eaay blue (Intron, South Korea). The isolated RNA was quantified using Nano drop, and then subjected to cDNA synthesis using a cDNA synthesis kit (Enzynomics, South Korea). […] The PCR reaction product was electrophoresed on a 1.5% agarose gel, and the bands were detected using the Bio-Rad Gel Image System."}, "Ha3-II": {"system": "Ha3-II", "assay": "Ha3-II gene expression in HHORSCs (RT-PCR)", "type": "cell-based, human", "conditions": "500 nM, 5 μM, and 50 μM, 24 hours, FIG. 6", "procedure": "as §1, §2"}, "LEF-1": {"system": "LEF-1", "assay": "LEF-1 gene expression in HHFDPCs (RT-PCR)", "type": "cell-based, human", "conditions": "500 nM, 5 μM, and 50 μM, 24 hours, FIG. 4", "procedure": "as §6, §7"}, "Akt": {"system": "Akt", "assay": "Akt phosphorylation in HHFDPCs (Western blot)", "type": "cell-based, human", "conditions": "500 nM, 5 μM, and 50 μM, 24 hours, FIG. 2", "procedure": "as §4, §5"}, "FOXN1": {"system": "FOXN1", "assay": "FOXN1 expression in HHGMCs (RT-PCR)", "type": "cell-based, human", "conditions": "500 nM, 5 μM, and 50 μM, 24 hours, FIG. 7", "procedure": "as §3\nas §2, with “HHGMCs” for “HHORSCs”, “6-well” for “96-well”, “4×10^5” for “4×10^3”, “Then, a PCR reaction was performed using the primers shown in Table 3 below and a PCR premix (Enzynomics, South Korea).” left out"}, "Cyclin D1": {"system": "Cyclin D1", "assay": "Cyclin D1 gene expression in HHFDPCs (RT-PCR)", "type": "cell-based, human", "conditions": "500 nM, 5 μM, and 50 μM, 24 hours, FIG. 4", "procedure": "as §6, §7"}},
  "note": "Where no end group is shown, it is not given here.",
  "data": [
    {"substance": "RHVLKRR [peptide of Preparation Example 1]", "values": [
      {"measurement": "expression of Keratin 14", "setting": "Keratin 14", "value": "increasing"},
      {"measurement": "expression of HOXC13", "setting": "HOXC13", "value": "increased"},
      {"measurement": "expression of Keratin 5", "setting": "Keratin 5", "value": "increasing"},
      {"measurement": "phosphorylation of extracellular-regulated kinase (ERK)", "setting": "[1]", "value": "increased"},
      {"measurement": "expression of DKK-1 induced by DHT treatment", "setting": "DKK-1", "value": "reduced in a concentration-dependent manner"},
      {"measurement": "expression of MSX2", "setting": "MSX2", "value": "increased"},
      {"measurement": "beta-catenin activation and movement to the nucleus", "setting": "beta-catenin", "value": "activated and its movement to the nucleus was increased"},
      {"measurement": "proliferation of HHFDPCs compared to the negative control (con)", "setting": "[2]", "value": "promoted the proliferation"},
      {"measurement": "expression of Keratin 19", "setting": "Keratin 19", "value": "increasing"},
      {"measurement": "gene expression of c-Myc", "setting": "c-Myc", "value": "increased"},
      {"measurement": "expression of Ha3-II", "setting": "Ha3-II", "value": "increasing"},
      {"measurement": "gene expression of LEF-1", "setting": "LEF-1", "value": "increased"},
      {"measurement": "phosphorylation of Akt", "setting": "Akt", "value": "increased"},
      {"measurement": "expression of FOXN1", "setting": "FOXN1", "value": "increased"},
      {"measurement": "gene expression of Cyclin D1", "setting": "Cyclin D1", "value": "increased"}
    ]}
  ]
}
